Legend:
hippocampal slices = assay: Effects of isoguvacine on spike frequency, extracellular field potential recordings in hippocampal slices; assay type: cell-based, rat; conditions: for Effects of isoguvacine on frequency of spikes in extracellular recordings (% of control), mean ± S.E.: VPA rats with maternal bumetanide pretreatment, P15
Experimental: Experiments were performed on fetuses and neonatal rat pups. We removed E20 rats from deeply anesthetized dams [subcutaneous injection of a mixture of xylazine (Rompun 2%; used at 0.05%) and ketamine (Imalgene 1000 used at 50 g/l)]. Hippocampal slices ([…] thick) were prepared using a Microm tissue slicer (International GmbH, Germany) as described previously (Tyzio et al. 2006 Science 314, 1788; Tyzio et al, 2008, Eur J. Neurosci. 27(10):2515-28). Slices were kept in oxygenated (95% O2/5% CO2) artificial cerebrospinal fluid (ACSF) of the following composition (in mM): NaCl 126, KCl 3.5, CaCl2 2.0, MgCl2 1.3, NaHCO3 25, NaH2PO4 1.2 and glucose 11 (pH 7.4) at room temperature (20-22° C.) at least 1 hour before use.
Extracellular field potentials and multi-unit activity (MUA) recordings Recording were made in the hippocampal slices using tungsten wire electrodes (diameter: 50 μm, California Fine Wire, Grover Beach, Calif.) and a low-noise multichannel DAM-8A amplifiers (WPI, GB; […]; gain: ×1000). The signals were digitized using an analogue-to-digital converter (Digidata 1440A, Axon Instruments, USA). pCLAMP 10.1, Clampfit 10.1 (Axon Instruments, USA), MiniAnalysis 6.03 (Synaptosoft, Decatur, Calif.) and Origin 7.5 (Microcal Software, USA) programs were used for the acquisition and analysis of the synaptic activities. Sampling interval per signal was 100 microseconds (10 kHz).
(§1) Bumetanide (10 μM), Oxytocin (1 μM) and Isoguvacine (2 μM) were directly added to the perfusion solutions. Bumetanide pretreatment (2-2.5 mg/kg) was given to the dams in drinking water. All drugs used were purchased from Sigma. SSR126768A (Sanofi-Synthelabo) pretreatment (1 mg/kg) was given to the dams in drinking water.

[1] = tested on: hippocampal CA3 pyramidal cells; assay: Acute application of bumetanide to hippocampal slices: DFGABA from cell-attached single GABAA channel recordings; assay type: cell-based, rat; conditions: acute bumetanide 10 μM
Experimental: Time-mated female Wistar rats at gestational day E7-8 were housed under standard laboratory conditions. […] The offspring were used for experiments on embryonic day 20 (E20) and postnatal (P) days 0, 2, 4, 7, 15 and 30 (after being weaned at P23). Experiments were carried out on offspring of either sex.
Hippocampal slices (300-500 nm thick) were prepared using a Microm tissue slicer (International GmbH, Germany) as described previously (Tyzio et al. 2006 Science 314, 1788; Tyzio et al, 2008, Eur J. Neurosci. 27(10):2515-28). Slices were kept in oxygenated (95% O2/5% CO2) artificial cerebrospinal fluid (ACSF) of the following composition (in mM): NaCl 126, KCl 3.5, CaCl2 2.0, MgCl2 1.3, NaHCO3 25, NaH2PO4 1.2 and glucose 11 (pH 7.4) at room temperature (20-22° C.) at least 1 hour before use.
For recordings, slices were placed into a conventional fully submerged chamber superfused with ACSF at a rate of 2-3 ml/min at room temperature. Patch clamp recordings from visually identified CA3 pyramidal cells in cell-attached configuration were performed using EPC-10 amplifier (HEKA Elektronik Dr. Schulze GmbH, Lambrecht/Pfalz, Germany). Patch pipette solution for recordings of single GABAA channels contained (in mM): NaCl 120, KCl 5, TEA-Cl 20, 4-aminopyridine 5, CaCl2 0.1, MgCl2 10, glucose 10, Hepes-NaOH 10 buffered to pH 7.2-7.3 and GABA 2 μM. Analysis of currents through single channels and current-voltage relationships were performed using Clampfit 9.2 (Axon Instruments, Union City, Calif.). Recordings were digitized (10 kHz) online with Digidata-1200 interface card (Axon Instruments, Union City, Calif.) and analyzed offline with Axon package, MiniAnalysis (S (Synaptsoft, Decatur, Ga.), and Origin (Microcal Software, Northampton, Mass.).
Bumetanide (10 μM), Oxytocin (1 μM) and Isoguvacine (2 μM) were directly added to the perfusion solutions. […] All drugs used were purchased from Sigma.

[2] = tested on: Valproate rat model of autism; assay: Isolation-induced ultrasonic vocalizations; assay type: in vivo
Experimental: (§2) Time-mated female Wistar rats at gestational day E7-8 were housed under standard laboratory conditions. The in utero valproic acid (VPA) rodent model of autism spectrum disorders has been previously described in detail. Briefly, the sodium salt of VPA (Sigma-Aldrich) was dissolved in physiological saline solution to a concentration of 300 mg/ml. Pregnant rats received a single intra-peritoneal dose of 600 mg/kg on gestational day 12 (E12). The control dams received a single similar volume injection of saline at the same gestational time-point. Dams were housed individually and allowed to raise their own litters. The offspring were used for experiments on embryonic day 20 (E20) and postnatal (P) days 0, 2, 4, 7, 15 and 30 (after being weaned at P23). Experiments were carried out on offspring of either sex.
To induce ultrasonic vocalizations, […], and were placed into an isolation box (23×28×18 cm) located inside a sound attenuating isolation cubicle (54×57×41 cm; Coulbourn Instruments, Allentown, Pa., USA), and evaluated for ultrasonic vocalizations during a three minutes test. An ultrasound microphone (Avisoft UltraSoundGate Condenser microphone capsule CM16/CMPA, Avisoft Bioacoustics, Berlin, Germany), placed in the roof of the box, was sensitive to frequencies of 10 to 250 kHz. Vocalizations were recorded using the Avisoft Recorder software (version 4.2) with a sampling rate of 250 kHz in 16 bit format. For acoustical analysis, recordings were transferred to SASLab Pro (version 5.2; Avisoft Bioacoustics) and a fast Fourier transformation was conducted (512 FFT-length, 100% frame, Hamming window and 75% time window overlap). The accuracy of call detection was verified manually by an educated user. A Pearson correlation coefficient was computed to assess the relationship between Automatic and Manual analysis. There was 0.99 correlation between the two variables.
as §1

[3] = tested on: Valproate rat model of autism; assay: In vivo EEG recordings in the CA3 area of hippocampus of head-restrained rats; conditions: for Integral power spectra of EEG recordings, mean ± S.E.M.: VPA rats with maternal BUM pretreatment, P13-15
Experimental: as §2
Head-fixed rat pups of age P13-P15 were prepared for extracellular recording under isoflurane anesthesia. The skin and periosteum were removed from the skull, which was then covered by glue and dental cement except for a 4-9 mm^2 window above the somatosensory cortex from one or two hemispheres for the silicon probe penetration (4.0-4.2 mm lateral to midline and 2.2-2.5 mm caudal to bregma) and for the reference electrode (1.0-1.5 mm lateral to midline and 6.0-6.5 mm caudal to bregma). The rat was positioned in the stereotaxic apparatus. A 1 mm-diameter burr hole was drilled in the skull; the dura was cut and removed. Recordings were made 1 h after recovery from anesthesia. Pups were kept restrained for <3 h and were closely monitored for signs of stress and to ensure that they spent a normal proportion of their time sleeping. The outside temperature was maintained between 35 and 36° C. The animals were kept in low-light conditions throughout all experiments. 16-site linear silicone probe (NeuroNexus Technologies) coupled to a direct-current amplifier (Molecular Devices) and dunked previously in fluorescent dye (DiI, Invitrogen) was slowly penetrated via the hole at […] depth under the angle 30° in the coronal plane. EEGs were recorded during 2 hours, using a 16-channel amplifier (A-M System, Inc.) and digitized at 5 kHz using Axoscope software (Molecular Deviced). Recordings were amplified and high-pass filtered at 0.3 Hz in Axoscope. Silicone probe location was verified postmortem via dye localization. To quantify the frequency band integral power the traces were band-pass filtered at frequency bands […]) θ-(4-7 Hz), α-(7-12 Hz), β-(12-25 Hz), Low γ-(25-60 Hz), High γ-(60-120 Hz) and Fast oscillations-(120-500 Hz)). Fast Fourier Transform (FFT) was applied with Clampfit (Molecular Devices). Integrals of FFT power spectra were taken and averaged with OriginPro (OriginLab Corporation).
as §1

[4] = P4 VPA rats + maternal BUM pretreatment
[5] = P4 control rats + maternal BUM pretreatment

## CCCCNc1cc(C(=O)O)cc(S(N)(=O)=O)c1Oc1ccccc1 [bumetanide]
Hippocampal slices; P15 VPA offspring, maternal bumetanide pretreatment, result in words
  excitatory actions of the GABAAR agonist isoguvacine: suppressed the excitatory actions
Hippocampal slices
  Effects of isoguvacine on frequency of spikes in extracellular recordings (% of control), mean ± S.E.: 82.8±10.7 % of control
Hippocampal slices; listed as BUM
  Effects of isoguvacine on frequency of spikes in extracellular recordings (% of control), mean ± S.E.: 82.8 ± 10.7 (n = 9), P < 0.05 % of control
[1]; P0 VPA neurons, result in words
  [Cl−]i: significantly decreased
[1]; P0 VPA rats
  DFGABA mV), mean±: −2.4 ± 1.2 (n = 21) mV
[1]; P0 control rats
  DFGABA mV), mean±: −5.3 ± 0.7 (n = 17) mV
[2]; P4 VPA offspring, maternal bumetanide pretreatment, result in words
  behavioral deficit (smaller number and shorter total duration of calls): rescued this behavioral deficit
[2]; [4]
  Number of calls, isolation-induced USVs mean ± S.E.M: 56 ± 25 (n = 20)
  Total duration of calls, isolation-induced USVs mean ± S.E.M: 4 ± 2 (n = 20)
[2]; [5]
  Number of calls, isolation-induced USVs mean ± S.E.M: 62.6 ± 27.4 (n = 18)
  Total duration of calls, isolation-induced USVs mean ± S.E.M: 4.6 ± 2.3 (n = 18)
[3]; P13-P15 VPA offspring, maternal bumetanide pretreatment, result in words
  EEG oscillatory hyperactivity and power of network oscillations: abolished hyperactivity and restored physiological values
[3]; frequency band 0.5-4 Hz
  Integral power spectra of EEG recordings, mean ± S.E.M.: 88.53 ± 27.57
[3]; frequency band 4-7 Hz
  Integral power spectra of EEG recordings, mean ± S.E.M.: 15.40 ± 4.25
[3]; frequency band 7-12 Hz
  Integral power spectra of EEG recordings, mean ± S.E.M.: 7.09 ± 1.56
[3]; frequency band 12-25 Hz
  Integral power spectra of EEG recordings, mean ± S.E.M.: 6.35 ± 1.52
[3]; frequency band 25-60 Hz
  Integral power spectra of EEG recordings, mean ± S.E.M.: 0.97 ± 0.20
[3]; frequency band 60-120 Hz
  Integral power spectra of EEG recordings, mean ± S.E.M.: 0.32 ± 0.06
[3]; frequency band 120-500 Hz
  Integral power spectra of EEG recordings, mean ± S.E.M.: 1.18 ± 0.19

Reference: patent US9592214B2, “Compounds for the treatment of autism in a baby child” (INSERM (INSTITUT NATIONAL DE LA SANTE ET DE LA RECHERCHE …, priority 2010, dated 2017)
